Values after ≈ are worked out from the molar mass of the structure shown. *1 amine or outer side, *2 acyl side, *3 side chain or, on linkers, in order; H or OH if unused. Where a SMILES comes first, the peptide text is derived from it. [ ]: non-standard residue; d: D form. X18 = CCCCCC[C@@H](OCCN[*:1])[C@@H](Cc1ccc(C)cc1)C(=O)[*:2]; X14 = CCCCCC[C@@H](OCCN[*:1])[C@@H](C)C(=O)[*:2]; aIle = CC[C@@H](C)[C@H](N)C(=O)O; aThr = C[C@H](O)[C@H](N)C(=O)O; NMeL = CN[C@@H](CC(C)C)C(=O)O; Chg = N[C@H](C(=O)O)C1CCCCC1; Dap = NC[C@H](N)C(=O)O
The compounds below were run on Escherichia coli (E. coli) strain CFT073 ATCC 700928. Settings: ATCC 700928, 22 h.
Format: cell-based
Summary of the method: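 Broth microdilution MIC per CLSI M07-A8 in cation-adjusted Mueller Hinton II broth with 0.002% Tween-80. Ten-point 2-fold series topped at 64, 4, 0.5 or 0.13 μg/mL depending on protocol. Final inoculum OD600 0.0005, incubated 22 h at 35 °C.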

MIC [µM] | Structure (SMILES)
4.1 (≈ 2.73 µg/mL) | CCCCCC[C@H]1OC(=O)CNC(=O)[C@H]([C@H](C)O)NC(=O)[C@H](CN)NC(=O)[C@H](C2CCCCC2)NC(=O)[C@H](CCC)N(C)C(=O)[C@@H]1C [Example 101, (6S,9S,12S,15S,18R,19R)-9-(aminomethyl)-12-cyclohexyl-19-hexyl-16,18-dimethyl-15-propyl-6-[(1S)-1-hydroxyethyl]-1-oxa-4,7,10,13,16-pentazacyclononadecane-2,5,8,11,14,17-hexone]
3.1 (≈ 2.16 µg/mL) | CCCCCC[C@H]1OC(=O)CNC(=O)[C@H]([C@@H](O)CO)NC(=O)[C@H](CN)NC(=O)[C@H](C2CCCCC2)NC(=O)[C@H](CC(C)C)N(C)C(=O)[C@@H]1C [Example 102, (6S,9S,12S,15S,18R,19R)-9-(aminomethyl)-12-cyclohexyl-19-hexyl-15-isobutyl-16,18-dimethyl-6-[(1R)-1,2-dihydroxyethyl]-1-oxa-4,7,10,13,16-pentazacyclononadecane-2,5,8,11,14,17-hexone]
3.1 (≈ 2.12 µg/mL) | CCCC(C)(C)CC[C@H]1OC(=O)CNC(=O)[C@H]([C@H](C)O)NC(=O)[C@H](CN)NC(=O)[C@H]([C@H](C)CC)NC(=O)[C@H](CC(C)C)N(C)C(=O)[C@@H]1C [Example 103, (6S,9S,12S,15S,18R,19R)-9-(aminomethyl)-19-(3,3-dimethylhexyl)-15-isobutyl-16,18-dimethyl-6-[(1S)-1-hydroxyethyl]-12-[(1R)-1-methylpropyl]-1-oxa-4,7,10,13,16-pentazacyclononadecane-2,5,8,11,14,17-hexone]
6.3 (≈ 4.29 µg/mL) | CCCCCC[C@H]1OC(=O)CNC(=O)[C@H]([C@H](C)O)NC(=O)[C@H](CN)NC(=O)[C@H]([C@H](C)CC)NC(=O)[C@H](CC2CCCC2)N(C)C(=O)[C@@H]1C [Example 104, (6S,9S,12S,15S,18R,19R)-9-(aminomethyl)-15-(cyclopentylmethyl)-19-hexyl-16,18-dimethyl-6-[(1S)-1-hydroxyethyl]-12-[(1R)-1-methylpropyl]-1-oxa-4,7,10,13,16-pentazacyclononadecane-2,5,8,11,14,17-hexone]
6.3 (≈ 5.05 µg/mL) | CCCCCC[C@H]1OC(=O)CNC(=O)[C@H]([C@H](C)O)NC(=O)[C@H](CN)NC(=O)[C@H](C2CCCCC2)NC(=O)[C@H](CC(C)C)N(C)C(=O)[C@@H]1CCOc1ccc(C)cc1 [Example 106, (6S,9S,12S,15S,18R,19R)-9-(aminomethyl)-12-cyclohexyl-19-hexyl-15-isobutyl-16-methyl-18-[2-(4-methylphenoxy)ethyl]-6-[(1S)-1-hydroxyethyl]-1-oxa-4,7,10,13,16-pentazacyclononadecane-2,5,8,11,14,17-hexone]
25 (≈ 17.7 µg/mL) | CC[C@@H](C)[C@@H]1NC(=O)[C@H](CC(C)C)N(C)C(=O)[C@H](C)[C@@H](CCCCCC(F)(F)F)OC(=O)CNC(=O)[C@H]([C@H](C)O)NC(=O)[C@H](CN)NC1=O [Example 107, (6S,9S,12S,15S,18R,19R)-9-(aminomethyl)-15-isobutyl-16,18-dimethyl-6-[(1S)-1-hydroxyethyl]-12-[(1R)-1-methylpropyl]-19-(6,6,6-trifluorohexyl)-1-oxa-4,7,10,13,16-pentazacyclononadecane-2,5,8,11,14,17-hexone]
35 (≈ 29.6 µg/mL) | CCCCCC[C@H]1OC(=O)CNC(=O)[C@H]([C@H](C)O)NC(=O)[C@H](CN)NC(=O)[C@H](C2CCCCC2)NC(=O)[C@H](CC(C)C)N(C)C(=O)[C@@H]1CCc1ccc(-c2ccccc2)cc1 [Example 108, (6S,9S,12S,15S,18R,19R)-9-(aminomethyl)-12-cyclohexyl-19-hexyl-15-isobutyl-16-methyl-18-[2-(4-phenylphenyl)ethyl]-6-[(1S)-1-hydroxyethyl]-1-oxa-4,7,10,13,16-pentazacyclononadecane-2,5,8,11,14,17-hexone]
25 (≈ 18.6 µg/mL) | CCCC[C@H]1OC(=O)CNC(=O)[C@H]([C@H](C)O)NC(=O)[C@H](CN)NC(=O)[C@H](C2CCCCC2)NC(=O)[C@H](CC(C)C)N(C)C(=O)[C@@H]1Cc1ccc(C)cc1 [Example 109, (6S,9S,12S,15S,18R,19R)-9-(aminomethyl)-19-butyl-12-cyclohexyl-15-isobutyl-16-methyl-18-(p-tolylmethyl)-6-[(1S)-1-hydroxyethyl]-1-oxa-4,7,10,13,16-pentazacyclononadecane-2,5,8,11,14,17-hexone]
25 (≈ 17.9 µg/mL) | CCCCCC[C@H]1OCCNC(=O)[C@H](CO)NC(=O)[C@H](CN)NC(=O)[C@H]([C@H](C)CC)NC(=O)[C@H](CC(C)C)N(C)C(=O)[C@@H]1Cc1ccc(C)cc1 [Example 110, (6S,9S,12S,15S,18R,19R)-9-(aminomethyl)-19-hexyl-6-(hydroxymethyl)-15-isobutyl-16-methyl-18-(p-tolylmethyl)-12-[(1R)-1-methylpropyl]-1-oxa-4,7,10,13,16-pentazacyclononadecane-5,8,11,14,17-pentone] (cyclo([Dap]S[X18][NMeL][aIle]))
8.8 (≈ 5.74 µg/mL) | CCCCCC[C@H]1OC(=O)CNC(=O)[C@H]([C@H](C)O)NC(=O)[C@H](CN)NC(=O)[C@H](C2CCCCC2)NC(=O)[C@H](CC)N(C)C(=O)[C@@H]1C [Example 111, (6S,9S,12S,15S,18R,19R)-9-(aminomethyl)-12-cyclohexyl-15-ethyl-19-hexyl-16,18-dimethyl-6-[(1S)-1-hydroxyethyl]-1-oxa-4,7,10,13,16-pentazacyclononadecane-2,5,8,11,14,17-hexone]
71 (≈ 55.6 µg/mL) | Cc1ccc(C[C@H]2C(=O)N(C)[C@@H](CC(C)C)C(=O)N[C@@H](C3CCCCC3)C(=O)N[C@@H](CN)C(=O)N[C@@H]([C@H](C)O)C(=O)NCC(=O)O[C@@H]2CCC(F)(F)F)cc1 [Example 112, (6S,9S,12S,15S,18R,19R)-9-(aminomethyl)-12-cyclohexyl-15-isobutyl-16-methyl-18-(p-tolylmethyl)-6-[(1S)-1-hydroxyethyl]-19-(3,3,3-trifluoropropyl)-1-oxa-4,7,10,13,16-pentazacyclononadecane-2,5,8,11,14,17-hexone]
50 (≈ 31.3 µg/mL) | CCCCCC[C@H]1OCCNC(=O)[C@H](CO)NC(=O)[C@H](CN)NC(=O)[C@H]([C@H](C)CC)NC(=O)[C@H](CC(C)C)N(C)C(=O)[C@@H]1C [Example 113, (6S,9S,12S,15S,18R,19R)-9-(aminomethyl)-19-hexyl-6-(hydroxymethyl)-15-isobutyl-16,18-dimethyl-12-[(1R)-1-methylpropyl]-1-oxa-4,7,10,13,16-pentazacyclononadecane-5,8,11,14,17-pentone] (cyclo([Dap]S[X14][NMeL][aIle]))
15 (≈ 11.1 µg/mL) | CC(C)C[C@H]1C(=O)N[C@@H](C2CCCCC2)C(=O)N[C@@H](CN)C(=O)N[C@@H]([C@H](C)O)C(=O)NCC(=O)O[C@H](CCCCCCC(C)(C)O)[C@@H](C)C(=O)N1C [Example 114, (6S,9S,12S,15S,18R,19R)-9-(aminomethyl)-12-cyclohexyl-19-(7-hydroxy-7-methyl-octyl)-15-isobutyl-16,18-dimethyl-6-[(1S)-1-hydroxyethyl]-1-oxa-4,7,10,13,16-pentazacyclononadecane-2,5,8,11,14,17-hexone]
8.7 (≈ 5.8 µg/mL) | CCCCCC[C@H]1OCCNC(=O)[C@H]([C@H](C)O)NC(=O)[C@H](CN)NC(=O)[C@H](C2CCCCC2)NC(=O)[C@H](CC(C)C)N(C)C(=O)[C@@H]1C [Example 115, (6S,9S,12S,15S,18R,19R)-9-(aminomethyl)-12-cyclohexyl-19-hexyl-15-isobutyl-16,18-dimethyl-6-[(1S)-1-hydroxyethyl]-1-oxa-4,7,10,13,16-pentazacyclononadecane-5,8,11,14,17-pentone] (cyclo([Chg][Dap][aThr][X14][NMeL]))
50 (≈ 35.4 µg/mL) | CCCCCC[C@H]1OC(=O)CNC(=O)[C@H](CNC(N)=O)NC(=O)[C@H](CN)NC(=O)[C@H](C2CCCCC2)NC(=O)[C@H](CC(C)C)N(C)C(=O)[C@@H]1C [Example 116, [(6S,9S,12S,15S,18R,19R)-9-(aminomethyl)-12-cyclohexyl-19-hexyl-15-isobutyl-16,18-dimethyl-2,5,8,11,14,17-hexaoxo-1-oxa-4,7,10,13,16-pentazacyclononadec-6-yl]methylurea]
25 (≈ 17.9 µg/mL) | CC(C)C[C@H]1C(=O)N[C@@H](C2CCCCC2)C(=O)N[C@@H](CN)C(=O)N[C@@H]([C@H](C)O)C(=O)NCC(=O)O[C@H](CCCCC(F)CF)[C@@H](C)C(=O)N1C (stereo partly drawn) [Example 117, (6S,9S,12S,15S,18R,19R)-9-(aminomethyl)-12-cyclohexyl-19-(5,6-difluorohexyl)-15-isobutyl-16,18-dimethyl-6-[(1S)-1-hydroxyethyl]-1-oxa-4,7,10,13,16-pentazacyclononadecane-2,5,8,11,14,17-hexone]
4.4 (≈ 3 µg/mL) | CCCCCC[C@H]1OC(=O)CNC(=O)[C@H]([C@H](C)O)NC(=O)[C@H](CO)NC(=O)[C@H](C2CCCCC2)NC(=O)[C@H](CC(C)C)N(C)C(=O)[C@@H]1C [Example 118, (6S,9S,12S,15S,18R,19R)-12-cyclohexyl-19-hexyl-9-(hydroxymethyl)-15-isobutyl-16,18-dimethyl-6-[(1S)-1-hydroxyethyl]-1-oxa-4,7,10,13,16-pentazacyclononadecane-2,5,8,11,14,17-hexone]
3.1 (≈ 2.39 µg/mL) | CCCCCC[C@H]1OC(=O)CNC(=O)[C@H]([C@H](C)O)NC(=O)[C@H](CN)NC(=O)[C@H](C2CCCCC2)NC(=O)[C@H](CC(C)C)N(C)C(=O)[C@@H]1Cc1cccc(C)c1 [Example 119, (6S,9S,12S,15S,18R,19R)-9-(aminomethyl)-12-cyclohexyl-19-hexyl-15-isobutyl-16-methyl-18-(m-tolylmethyl)-6-[(1S)-1-hydroxyethyl]-1-oxa-4,7,10,13,16-pentazacyclononadecane-2,5,8,11,14,17-hexone]

Same assay, conditions: E. coli CFT073 ATCC 700928; Mueller Hinton II cation adjusted Broth with 0.002% v/v Tween-80; 35° C. for 22 hours; lowest concentration that completely prevented bacterial growth

Structure (SMILES) | MIC [µM]
C=CCCCC[C@H]1OC(=O)CNC(=O)[C@H]([C@H](C)O)NC(=O)[C@H](CN)NC(=O)[C@H](C2CCCCC2)NC(=O)[C@H](CC(C)C)N(C)C(=O)[C@@H]1C [Example 105, (6S,9S,12S,15S,18R,19R)-9-(aminomethyl)-12-cyclohexyl-19-hex-5-enyl-15-isobutyl-16,18-dimethyl-6-[(1S)-1-hydroxyethyl]-1-oxa-4,7,10,13,16-pentazacyclononadecane-2,5,8,11,14,17-hexone] | 5.2 (≈ 3.53 µg/mL)

Reference: patent publication US11279735B2, “Cyclic peptide antibiotics” (priority 2017, dated 2022)
